Results reported in patent US6670399B2, “Compounds and methods for modulating cerebral amyloid angiopathy” (Neurochem (International) Limited, priority 1999, dated 2003).

Tested on: hAPP transgenic mice
Assay: Extent of CAA in brain sections of hAPP transgenic mice after 8 weeks of treatment, Thioflavin S staining
Assay type: in vivo
Conditions: for # of animals with CAA: nine week old hAPP transgenic mice
Method: The ability of compounds of the invention to inhibit CAA was measured in the following example. Nine week old hAPP transgenic mice were treated for a period of 8 weeks with two different concentrations of a compound of the present invention, 3-amino-1-propanesulfonic acid, sodium salt, 100 and 30 mg/kg. Mice were administered the compound for 8 weeks, after which they were sacrificed and their brains were perfused and processed for histological staining with Thioflavin S. This method may also be used as a screening method for determining activity of a candidate compound for inhibiting CAA.
The extent of CAA in brain sections obtained from these animals was qualitatively determined following staining.

[1] = 100 mg/kg (printed 100 mg · kg), hAPP transgenic mice
[2] = 100 and 30 mg/kg, hAPP transgenic mice, versus vehicle

SMILES: NCCCS(=O)(=O)[O-].[Na+] [3-amino-1-propanesulfonic acid, sodium salt]
- CAA Severity + (slight deposition), animals with grade/animals with CAA (30 mg/kg, hAPP transgenic mice): 6/10
- CAA Severity ++ (moderate deposition), animals with grade/animals with CAA (30 mg/kg, hAPP transgenic mice): 4/10
- CAA animals/total animals (30 mg/kg, hAPP transgenic mice): 10/11
- # of animals with CAA (30 mg/kg, 11 animals in study): 10
- CAA Severity + (slight deposition), animals with grade/animals with CAA [1]: 9/10
- CAA Severity +++ (severe deposition), animals with grade/animals with CAA [1]: 1/10
- CAA animals/total animals [1]: 10/15
- # of animals with CAA (100 mg/kg (printed 100 mg · kg), 15 animals in study): 10
- effect on the severity of the deposition seen in the brain vasculature [2]: showing an effect
- reducing the number of mice showing CAA [2]: effective
